Experimental data reported in patent publication US5208364A, “Antibiotic 5-lipoxygenase inhibitors” (Bristol-Myers Squibb Co., priority 1992, dated 1993).

Key:
rat 5-LPO = biological target: T1, rat 5-LPO (Rattus norvegicus, UniProt P12527); assay: 5-LPO inhibitory activity (5-HETE produced in cell-free extract of rat basophilic leukemia RBL-1 cells, HPLC); type: biochemical; conditions: arachidonic acid substrate, 37° C., 5 minutes
T1 construct: produced in a cell-free extract of rat basophilic leukemia cells; endogenous in cells; host or cells: RBL-1 rat basophilic leukemia cells (ATCC CRL 1378), cell-free extract
T1 sequence (P12527 1-673): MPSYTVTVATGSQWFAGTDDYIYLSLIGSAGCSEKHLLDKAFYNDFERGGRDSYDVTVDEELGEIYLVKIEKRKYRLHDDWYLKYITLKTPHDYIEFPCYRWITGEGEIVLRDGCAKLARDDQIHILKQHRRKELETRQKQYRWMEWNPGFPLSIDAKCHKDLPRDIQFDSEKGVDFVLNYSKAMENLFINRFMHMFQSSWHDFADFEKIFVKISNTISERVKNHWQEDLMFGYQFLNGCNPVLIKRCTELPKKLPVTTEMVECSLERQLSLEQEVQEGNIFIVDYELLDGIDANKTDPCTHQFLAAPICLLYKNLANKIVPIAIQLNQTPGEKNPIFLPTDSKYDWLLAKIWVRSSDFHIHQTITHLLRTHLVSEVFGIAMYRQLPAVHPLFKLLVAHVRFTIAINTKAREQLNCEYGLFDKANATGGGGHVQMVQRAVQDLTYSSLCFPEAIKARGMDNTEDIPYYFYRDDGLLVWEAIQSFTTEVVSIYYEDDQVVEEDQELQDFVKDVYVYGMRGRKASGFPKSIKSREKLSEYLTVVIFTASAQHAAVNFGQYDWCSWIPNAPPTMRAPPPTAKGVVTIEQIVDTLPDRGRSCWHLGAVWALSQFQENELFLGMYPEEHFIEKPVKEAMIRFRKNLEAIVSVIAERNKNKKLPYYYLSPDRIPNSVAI
Description: The assay method employed in this manuscript is a slight modification of that published by Hook, Yacobuci, O'Connor, Lee, Kerns, Krishnan, Matson and Hesler in "Identification of the inhibitory activity of carbazomycins B and C against 5-lipoxygenase: a new activity for these compounds", J. Antibiot. (1990) 43, 1347. Rat basophilic leukemia cells […]. They were harvested by centrifugation and washed twice with […] containing I mM EDTA. The cells were resuspended in the same buffer and sonicated. The suspension was centrifuged at 13,000×g to remove cell debris and the supernatant stored at -80° C.
Enzyme assays were conducted by diluting the cell-free extract to the desired specific enzyme activity with phosphate buffer saline (PBS) containing 28.5 mM phosphate, 1 mM ethylenediamine tetraacetic acid (EDTA), 0.9 mM adenosine triphosphate (ATP) and 0.9 mM glutathione. The cell-free extract solution (110 μ1) was preincubated at 37° C. for 2.5 minutes, followed by the addition of the test sample in 20 μl of DMSO-PBS (1:9, v/v). The reaction was started by the addition of 5 μl of substrate (2 mM arachidonic acid plus 25 mM CaC12 in ethanol-water, 3:1). After incubation for 5 minutes, the reaction was terminated by the addition of 135 μl of ethanol and the solution centrifuged to remove precipitated protein. The 5-hydroxyeicosatetraenoic acid (5-HETE) in the supernatant was analyzed by HPLC as described below.
The inhibitory effect of a fermentation broth extract or a purified preparation was determined by measuring the amount of 5-hydroxyeicosatetraenoic acid (5-HETE) produced in a cell-free extract of rat basophilic leukemia cells (RBL-I cells, ATCC CRL 1378) in the presence of a test sample, arachidonic acid, adenosine triphosphate, CaC12 and glutathione. […] The concentration of 5-HETE was spectrophotometrically measured at 230 nm with a Gilson 115 UV detector and a Hewlett Packard 3396 A integrator.

[1] = Solubility (physico-chemical properties); type: physicochemical

**Q.** Which results are given for CC(C)CCCCCCCCOC(=O)c1cc(O)ccc1N [IB, Isoundecyl 5-hydroxyanthranilate]?
**A.** IC50 (rat 5-LPO): 4.9 µM; solubility in methanol, ethanol, ethyl acetate, chloroform and dimethyl sulfoxide [1]: soluble; solubility in n-hexane [1]: slightly soluble; solubility in water [1]: insoluble

**Q.** Which IC50 (rat 5-LPO) does the source give for CC(C)CCCCCCCCCOC(=O)c1cc(O)ccc1N [Compound IC, Isolauryl 5-hydroxyanthranilate] here?
**A.** 6.3 µM

**Q.** What about the “solubility in methanol, ethanol, ethyl acetate, chloroform and dimethyl sulfoxide” value [1] of the same compound?
**A.** soluble

**Q.** What about the solubility in n-hexane [1] of the same compound?
**A.** slightly soluble

**Q.** What about the solubility in water [1] of the same compound?
**A.** insoluble

**Q.** Which results are given for CC(C)CCCCCCCOC(=O)c1cc(O)ccc1N [IA, Isodecyl 5-hydroxyanthranilate]?
**A.** IC50 (rat 5-LPO): 3.4 µM; solubility in methanol, ethanol, ethyl acetate, chloroform and dimethyl sulfoxide [1]: soluble; solubility in n-hexane [1]: slightly soluble; solubility in water [1]: insoluble
